Measurements: US20200275624A1, “A METHOD FOR PRODUCING BANANA PLANTS WITH TOLERANCE TO FUSARIUM OXYSPORUM CUBENSIS TR4” (RAHAN MERISTEM (1998) LTD, priority 2017, published 2020)

Test system: banana meristems
Assay: Micropropagation of banana meristems in media comprising a cytokinin-like substance
Assay type: cell-based
Conditions: meristematic tissue propagation; compared with other cytokinin-like substances; TDZ in the range of 0.1 ppm
Description: In some embodiments, during the propagation stage, and typically before exposure to the demethylating agent, the meristematic tissues are propagated, at least in one propagating cycle, in a media comprising a cytokinin-like substance. Cytokinin like substances are known in the art, and non-limiting examples, include isopentenyl adenine (2iP), kinetin (KIN), 6-Benzyladenin (BA) and 6-Benzylaminopurine (BAP), 1-phenyl-3-(1,2,3-thiadiazol-5-yl) urea (TDZ).
The presence of TDZ in the culture media is in very low amounts, typically, in the range of 0.1 ppm. This amount is sufficient to induce the desired cell division.
On the 7th cycle of propagation 0.1 ppm Thidiazuron (TDZ) was added to the medium. In cycles 20 and 21, 30 μM 5-Aza-2-Deoxycytidine (a demethylation compound) was filter sterilized and added to the medium after solidification.

## O=C(Nc1ccccc1)Nc1cnns1 [TDZ, 1-phenyl-3-(1,2,3-thiadiazol-5-yl) urea]
  rate of multiplication: best rate of multiplication
